Test results: ChEMBL document CHEMBL1128156, “Potent dual antagonists of endothelin and angiotensin II receptors derived from -phenoxyphenylacetic acids (Part III)” (Bioorg Med Chem Lett, 1995)

What was measured:
[1] = molecular target: T1, Endothelin receptor type B (Homo sapiens, UniProt P24530); assay: Inhibition of human endothelin B (ETB) receptor expressed in CHO cells; format: cell-based
T1 sequence (P24530 whole entry): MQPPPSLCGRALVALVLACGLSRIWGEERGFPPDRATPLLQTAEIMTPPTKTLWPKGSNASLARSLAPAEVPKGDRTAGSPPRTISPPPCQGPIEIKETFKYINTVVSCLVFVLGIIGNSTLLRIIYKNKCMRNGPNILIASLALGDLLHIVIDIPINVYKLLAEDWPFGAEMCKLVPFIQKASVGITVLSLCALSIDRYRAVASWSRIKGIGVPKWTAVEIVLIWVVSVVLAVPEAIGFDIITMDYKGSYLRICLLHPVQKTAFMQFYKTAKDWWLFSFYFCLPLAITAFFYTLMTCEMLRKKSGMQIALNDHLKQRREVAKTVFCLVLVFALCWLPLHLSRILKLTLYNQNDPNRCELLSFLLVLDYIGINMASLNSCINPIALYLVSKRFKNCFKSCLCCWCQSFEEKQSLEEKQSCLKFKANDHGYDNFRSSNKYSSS

[2] = molecular target: T2, Endothelin-1 receptor (Homo sapiens, UniProt P25101); assay: Inhibition of human endothelin A (ETA) receptor expressed in CHO cells; format: cell-based
T2 sequence (P25101 whole entry): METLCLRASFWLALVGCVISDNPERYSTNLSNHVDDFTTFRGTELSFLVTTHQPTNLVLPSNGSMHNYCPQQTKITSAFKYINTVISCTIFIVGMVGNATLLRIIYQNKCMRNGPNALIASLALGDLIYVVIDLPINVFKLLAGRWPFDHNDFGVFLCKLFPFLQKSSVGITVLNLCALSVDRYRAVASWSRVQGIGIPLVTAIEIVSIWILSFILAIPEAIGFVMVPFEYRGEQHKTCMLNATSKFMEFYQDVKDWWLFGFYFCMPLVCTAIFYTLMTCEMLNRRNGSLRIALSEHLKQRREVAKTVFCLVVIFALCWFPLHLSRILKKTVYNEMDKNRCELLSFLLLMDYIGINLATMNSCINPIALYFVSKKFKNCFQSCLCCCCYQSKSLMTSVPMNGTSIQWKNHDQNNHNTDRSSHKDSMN

Row | IC50 [1] [nM] | IC50 [2] [nM] | Compound
1 | 47000 | 11000 | CCCc1cc(Cn2c(CC)nc3c(C)cc(C)nc32)ccc1OC(C(=O)O)c1ccccc1 (centres undefined)
2 | 1200 | 500 | CCCc1cc(Cn2c(CC)nc3c(C)cc(C)nc32)cc(CCC)c1OC(C(=O)NS(C)(=O)=O)c1ccc2c(c1)OCO2 (centres undefined)
3 | 1600 | 840 | CCCc1cc(Cn2c(CC)nc3c(C)cc(C)nc32)ccc1OC(C(=O)O)c1ccc2c(c1)OCO2 (centres undefined)
4 | 230 | 38 | CCCc1cc(Cn2c(CC)nc3c(C)cc(C)nc32)cc(CCC)c1OC(C(=O)O)c1ccc2c(c1)OCO2 (centres undefined)
5 | 60 | 24 | CCCc1cc(Cn2c(CC)nc3c(C)cc(C)nc32)ccc1OC(C(=O)NS(=O)(=O)c1ccc(C(C)C)cc1)c1ccc2c(c1)OCO2 (centres undefined)
6 | 90 | 75 | CCCc1cc(Cn2c(CC)nc3c(C)cc(C)nc32)ccc1OC(C(=O)NS(=O)(=O)c1ccc(CC(C)C)s1)c1ccc2c(c1)OCO2 (centres undefined)

Second part, the compound before the results:

Row | Compound | IC50 [1] [nM] | IC50 [2] [nM]
7 | CCCc1cc(Cn2c(CC)nc3c(C)cc(C)nc32)cc(CCC)c1OC(C(=O)NS(=O)(=O)c1ccc(CC(C)C)s1)c1ccc2c(c1)OCO2 (centres undefined) | 420 | 600
8 | CCCc1cc(Cn2c(CC)nc3c(C)cc(C)nc32)cc(CCC)c1OC(C(=O)NS(=O)(=O)c1ccc(C(C)C)cc1)c1ccc2c(c1)OCO2 (centres undefined) | 1300 | 330
9 | CCCc1cc(Cn2c(CC)nc3c(C)cc(C)nc32)cc(CCC)c1OC(C(=O)NS(=O)(=O)C(C)C)c1ccc2c(c1)OCO2 (centres undefined) | 1900 | 700
10 | CCCc1cc(Cn2c(CC)nc3c(C)cc(C)nc32)cc(CCC)c1OC(C(=O)NS(=O)(=O)c1ccccc1)c1ccc2c(c1)OCO2 (centres undefined) | 800 | 1600
11 | CCCc1cc(Cn2c(CC)nc3c(C)cc(C)nc32)cc(CCC)c1OC(C(=O)O)c1cc(Br)c(OC)c(OC)c1Br (centres undefined) | 31000 | 11000
12 | CCCc1cc(Cn2c(CC)nc3c(C)cc(C)nc32)cc(CCC)c1OC(C(=O)NS(=O)(=O)c1cccs1)c1ccc2c(c1)OCO2 (centres undefined) | 540 | 820
